Columns and labels:
[1] = biological target: T1, Proteasome Macropain subunit MB1 (Homo sapiens, UniProt P28074); assay: Inhibition of human 20S constitutive proteosome beta5c subunit using Suc-LLVY-AMC as substrate measured after 10 mins by fluorescence based analysis
T1 sequence (P28074 whole entry): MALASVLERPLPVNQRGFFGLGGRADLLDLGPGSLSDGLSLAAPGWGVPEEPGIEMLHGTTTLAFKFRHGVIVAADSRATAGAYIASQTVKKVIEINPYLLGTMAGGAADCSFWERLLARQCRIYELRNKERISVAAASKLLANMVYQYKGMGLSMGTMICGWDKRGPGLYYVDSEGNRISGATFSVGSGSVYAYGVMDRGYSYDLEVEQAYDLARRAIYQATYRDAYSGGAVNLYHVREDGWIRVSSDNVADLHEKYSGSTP

[2] = biological target: T1, Proteasome Macropain subunit MB1; assay: Competitive inhibition of human 20S constitutive proteosome beta5c subunit using Suc-LLVY-AMC as substrate measured after 10 mins by fluorescence based analysis

SMILES	IC50 [1]	Ki [2]
COc1ccccc1NC(=O)Nc1ccc2n(c1=O)C[C@@H]1C[C@H]2CN(C(=O)c2ccccn2)C1	560 µM	
N#Cc1cccc(NC(=O)Nc2ccc3n(c2=O)C[C@@H]2C[C@H]3CN(C(=O)c3ccccc3)C2)c1	201 µM	
COc1ccccc1NC(=O)Nc1ccc2n(c1=O)C[C@@H]1C[C@H]2CN(C(=O)c2ccc3ccccc3c2)C1	6.65 µM	4.6 µM
N#Cc1cccc(NC(=O)Nc2ccc3n(c2=O)C[C@@H]2C[C@H]3CN(C(=O)c3ccc4ccccc4c3)C2)c1	10.3 µM	3.42 µM
CC(=O)N1C[C@H]2C[C@@H](C1)c1ccc(NC(=O)Nc3cccc(C#N)c3)c(=O)n1C2	491 µM	
O=C(Nc1ccccc1)Nc1ccc2n(c1=O)C[C@@H]1C[C@H]2CN(C(=O)c2ccc3ccccc3c2)C1	11.1 µM	9.69 µM
O=C(Nc1ccc(Cl)cc1)Nc1ccc2n(c1=O)C[C@@H]1C[C@H]2CN(C(=O)c2ccc3ccccc3c2)C1	3.43 µM	1.14 µM
O=C(Nc1ccccc1)Nc1ccc2n(c1=O)C[C@@H]1C[C@H]2CN(C(=O)c2ccccn2)C1	> 500 µM	
N#Cc1cccc(NC(=O)Nc2ccc3n(c2=O)C[C@@H]2C[C@H]3CN(C(=O)c3cccnc3)C2)c1	440 µM	

From ChEMBL document CHEMBL5252637, “Identification of a new class of proteasome inhibitors based on a naphthyl-azotricyclic-urea-phenyl scaffold” (RSC Med Chem, 2023)
